From patent publication US9446065B2, “Pharmaceutical composition for use in the treatment and/or the prevention of osteoarticular diseases” (BONE THERAPEUTICS, priority 2008, dated 2016)
Values joined by “and” are separate entries in the source; they are usually repeats but may differ in a detail not shown here. Equal entries are not always repeated. Where two headings read alike, the source gives them in different places.

Tests used:
[1] = tested on: PBMC (Peripheral blood mononuclear cells); experiment: PBMC proliferation assay (3H-thymidine); assay type: cell-based, human; conditions: for Proliferation: HA 200 μg/mL, A2A 5 μM
Experimental: (§1) The effects of the combination clonidine and hyaluronic acid were tested in a model of Peripheral Blood Mononuclear Cells. In brief, PBMCs (Peripheral blood mononuclear cells) from heparinized venous blood of healthy volunteers were isolated by Ficoll-gradient centrifugation. MNC (Mononuclear cells) were washed three times in PBS and resuspended in RPMI-1640 medium supplemented with 100 U/mL penicillin, 100 μg/mL streptomycin, and 10% heat-inactivated FBS. Cells were seeded at 100.000 cells in 96-wel plate in a total volume of 200 μL/well.
(§2) PBMC, at 100.000 cells/200 μL, were plated in 96-well microtiter plates and stimulated or not 10 μg/mL phytohemagglutinin (PHA). Effects of hyaluronic acid “HA” (200 μg/mL) and p-aminoclonidine “A2A” (5 μM) were tested on PBMC.
Proliferation Assay. The culture was incubated with 1 μCi/mL 3H-thymidine for 24 h before end of culture to measure the proliferation. Then, cells were washed twice with ice-cold PBS and twice with ice-cold 5% trichloroacetic acid (TCA). Finally, cells were lysed with 0.1N NaOH-0.1% Triton-X100. Supernatants were collected and analyzed on a beta-counter in presence of scintillation liquid. Results were done in cpm (“count per minute”=disintegration number of radioactive element observed in series of successive counts of one minute).
(§3) The release of IL-1beta by PBMC and the proliferation of PBMC, induced by PHA stimulation, were set as controls, and compared with the measures for PBMC treated with HA and/or A2A.

[2] = tested on: IL-1β; experiment: IL-1β detection (ELISA) in PBMC culture; assay type: cell-based, human; conditions: for IL-1β detection: HA 200 μg/mL, A2A 5 μM
Experimental: as §1, §2
IL-1β detection (By ELISA). Levels of IL-1β from PBMC or culture supernatants were measured by Quantikine ELISA kit (R&D Systems Inc, Minneapolis, USA). The minimum detectable concentration of IL-1β was estimated at 1.0 pg/mL.
as §3

[3] = tested on: IL-I beta; experiment: Inhibition of IL-I beta release by LPS-stimulated TH1 cells; assay type: cell-based
Experimental: The inhibition of IL-I beta release by alpha-2-adrenergic agonists, induced by LPS stimulation of TH1 cells, is measured under control conditions (dexamethasone).

[4] = tested on: acute pain; conditions: cited from earlier work
[5] = tested on: mono-arthritis symptoms; design: Reduction in Pain: concentration or dose not given beside the values; conditions: cited from earlier work
[6] = PBMC + PHA 10 μg/mL, PBMC + PHA = 100
[7] = PBMC not stimulated, PBMC + PHA = 100
[8] = average data from meta-analyses and/or published studies

Nc1cc(Cl)c(N=C2NCCN2)c(Cl)c1 [A2A, p-aminoclonidine]
effect on PBMC proliferation, in words ([1]; PBMC + PHA): not able to inhibit PBMC proliferation | Proliferation ([1]; PBMC + PHA 10 μg/mL): 16212 cpm | Proliferation [1, 6]: 101% | Proliferation ([1]; PBMC not stimulated): 786 cpm | Proliferation [1, 7]: 4.9% | effect on IL-1beta secretion, in words ([2]; PBMC + PHA): totally suppresses the increase in IL-1beta secretion | effect on basal conditions, in words ([2]; unstimulated PBMC): no effect

Brc1c(NC2=NCCN2)ccc2nccnc12 [Brimonidine]
effect on IL-I beta release, in words [3]: no effects

C[C@@H]1C[C@H]2[C@@H]3CCC4=CC(=O)C=C[C@]4(C)[C@@]3(F)[C@@H](O)C[C@]2(C)[C@@]1(O)C(=O)CO [Dexamethasone]
inhibition at 0.1 µM ([3]; 10^−7 M, read-out: inhibition of IL-I beta secretion): ~65%

N=C(N)N/N=C/c1c(Cl)cccc1Cl [Guanabenz]
effect on IL-I beta release, in words [3]: no effects

Clc1cccc(Cl)c1NC1=NCCN1 [clonidine, N-(2,6-dichlorophenyl)-4,5-dihydro-1H-imidazol-2-amine]
minimum effect duration in acute pain studies ([4]; Alagol et al, 2005): 4 h | duration of effects in acute pain studies (not to exceed) ([4]; Gentili et al, 2001): ≤ 72 h

hyaluronic acid [HA]
reduction of PBMC proliferation ([1]; PBMC + PHA): 2 factor | Proliferation ([1]; PBMC + PHA 10 μg/mL): 9087 cpm | Proliferation [1, 6]: 57% and 56% | Proliferation ([1]; PBMC not stimulated): 364 cpm | Proliferation [1, 7]: 2.2% | increase of IL-1beta secretion over the stimulated conditions ([2]; PBMC + PHA): 3 times | IL-1β detection ([2]; PBMC + PHA 10 μg/mL): 6394 pg/mL | IL-1β detection [2, 6]: 293% and 292% | IL-1β detection ([2]; PBMC not stimulated): 2095 pg/mL | IL-1β detection [2, 7]: 96% | Improvement in Function ([5]; Arich et al., 2005): −11% | Reduction in Pain ([5]; Arich et al., 2005): 0% | Reduction in Pain (max effect reported) ([5]; Arich et al., 2005): −17% | Improvement in Function ([5]; Kolarz et al., 2003): −23% | Reduction in Pain ([5]; Kolarz et al., 2003): −55% | improvement in function, maximal effect reported in literature ([5]; Kolarz et al., 2003): 23% | improvement in pain, maximal effect reported in literature ([5]; Kolarz et al., 2003): 55% | Reduction in Pain ([5]; Lo et al., 2004): −7% | Reduction in Pain (max effect reported) ([5]; Lo et al., 2004): −47% | Reduction in Pain ([5]; Wang et al., 2004): −8% | Reduction in Pain (max effect reported) ([5]; Wang et al., 2004): −24% | Improvement in Function [5, 8]: −15% | Reduction in Pain [5, 8]: −10% | Side-Effects (major side effects only) [5, 8]: None | benefit on swelling ([5]; literature): no reported benefit on swelling | decrease of pain score (VAS) in meta-analyses ([5]; meta-analyses that reassessed efficacy): ≤ 15 mm
